In patent US20240376119A1, “SPIRO COMPOUND AND USE THEREOF” (CSPC Zhongqi Pharmaceutical Technology (Shijiazhuang) Co., …, priority 2021, published 2024):

Experiments:
[1] = system: human lung adenocarcinoma NCI-H441 cells; assay: In vitro inhibitory effect on the proliferation of NCI-H441 cells (3D CellTiter Glo, 5 days); assay type: cell-based; details: 120 h, 3D cell viability
Experimental: The human lung adenocarcinoma cell NCI-H441 used in the assay was purchased from ATCC. The complete culture medium required for cell culture was RPMI 1640 Medium (GIBCO Company), which was supplemented with 10% fetal bovine serum (GIBCO Company). Cells were cultured in a 37° C., 5% CO2 incubator. The reagents used in the assay included dimethyl sulfoxide (purchased from Sigma), a 3D Cell Viability assay kit (purchased from Promega), and the control substance TW-45 used in the assay was obtained homemade. The test substance was sealed and stored at 4° C.
Dimethyl sulfoxide was used as the solvent to fully dissolve the test substance and prepare a stock solution with a concentration of 1×10^−2 mol/L. The stock solution was stored at −20° C. A complete culture medium was used as the diluent, and the test substance was diluted to different concentrations in gradient for later use (the final test concentration was 10000, 3333, 1111, 370, 123, 41, 13.7, 4.5, 1.5, and 0.5 nM). Cells were cultured in a 37° C., 5% CO2 incubator for 5 days. Detection was made on the fifth day. 30 μL of reagent (Celltiter Glo Assay Kit-3D) was added to each well and the plate was shaken on a plate oscillator (protected from light) for 30 minutes. The plate was incubated at room temperature (protected from light) for 120 minutes. Chemiluminescence values were recorded with a Multiplate reader. […]

[2] = Mouse tolerance assay (once daily for 7 consecutive days); assay type: in vivo; details: mouse, in vivo; for Number of animals (number of deaths/total number): 7 days
Experimental: • Assay animals: ICR mice, female, 5 weeks old • Solvent: 2% DMSO+98% (0.5% MC), treated by sufficient vortex and sonicated to obtain a uniform suspension • Assay method: Female ICR mice were divided into 4 groups according to weight balance, with 5 mice in each group. The administration doses were 50 mg/kg and 200 mg/kg respectively. The compound was administrated once daily for 7 consecutive days.

In the case of `[2H][C@@]1(N)c2ccccc2OC12CCN(c1nc(N)c(Sc3ccnc(N)c3Cl)nc1C(C)=O)CC2` [Compound 56, (R)-1-(5-amino-6-((2-amino-3-chloropyridine-4-yl)sulfanyl)-3-(3-amino-3-deuterium-spiro[benzofuran-2,4′-piperidine]-1′-yl)pyrazine-2-yl)ethanone], the IC50 [1] is reported as at most 20 nM, the MTD at 7 days ([2]; female, ICR) is reported as over 200 mg/kg and the “Number of animals (number of deaths/total number)” value ([2]; female, ICR, 50 mg/kg) is reported as 0/5F. The “Number of animals (number of deaths/total number)” value ([2]; female, ICR, 200 mg/kg) was 0/5F and the “tolerance in mice compared with positive control compound TW-45” value [2] was “significantly better”.
